Where two headings read alike, the source gives them in different places.

A short description of series [1]: Ex vivo metabolite studies (radio-HPLC of plasma and brain extracts). It counts as in vivo, CD1 mice. As to conditions: mice. The method, then: (§1) [^18F]1 and [^18F]2 (100 to 150 MBq, 250 to 450 GBq/μmol in 150 μL NaCl 0.9%/10% EtOH) were injected via the tail vein in CD1 male mice (10 to 12 weeks old, 20 to 25 g). Blood and urine samples were obtained at 30 and 60 min p.i. (n = 3 per time point). Twofold extractions of plasma and brain samples (n = 3) were performed using ice-cold MeCN according to the standard protocol established in our group (see [47, 48]). Briefly, plasma samples were obtained by centrifugation of the blood at 4,000×g at 4°C for 10 min, and brain samples were homogenized in ice-cold 50 mM Tris–HCl (pH = 7.4). The samples were vortexed, incubated on ice, and centrifuged at 10,000×g for 3 min. Supernatants were collected, and the precipitates were re-dissolved in ice-cold MeCN for the second extraction. The supernatants from the two extractions were combined, concentrated under a gentle argon stream at 65°C, and analyzed by radio-TLC and gradient analytical HPLC (see ‘Radiochemistry’ section). Aliquots from each extraction supernatant and the precipitates were also taken and quantified by γ counting (Wallac Wizard 1470, Perkin Elmer Inc., Waltham, MA, USA) along with the respective aliquots of intact plasma samples and brain homogenates. A moderate recovery of radioactivity was obtained from plasma samples and brain homogenates (60% to 70%). Radiometabolites of [^18F]17 in the plasma, spleen, and brain were assessed at 30 and 60 min p.i.

Series [2] is described as follows: In vivo metabolism of [18F]17 and uptake of [18F]10. More on the design: species or system CD1 mice. As to conditions: for tissue uptake at 0.5 h / tissue uptake at 1 h: mouse, iv, after i.v. 100 to 200 kBq [18F]17, female CD1 mice. The method, then: The total amount of activity measured in, e.g. the plasma at particular times p.i. also depends on the kinetics of the excretion of radiotracer/radiometabolites. For [^18F]2, this is more pronounced than for [^18F]1 with unmetabolized [^18F]2 accounting for only 2% of the total radioactivity in the plasma at 30 min p.i. At this time, more than 90% of the recovered activity in plasma samples for [^18F]2 consisted of the single radiometabolite M1b. As this value decreases only slightly up to 60 min p.i. (88%), M1b can be assumed as a rather metabolically stable compound. This radiometabolite of [^18F]2 probably corresponds to the N-aryl-oxadiazolyl-propanoic acid resulting from enzymatic hydrolysis of the amide bond of 2[40]. […] In order introduce ^18F into the molecule, the carbon acid moiety was protected as a methyl ester resulting in the labelled compound [^18F]17 (Scheme 5). It was expected that after injection of this compound in mice, the ester will be converted into the free acid [^18F]10. […] After intravenous injection of [^18F]17 in CD1 mice, samples of the plasma, brain, and spleen were analyzed at 30 and 60 min p.i. (Table 5).
as §1

A word on the melting point: it is the temperature of the solid-liquid transition. As for `Cc1ccc(S(=O)(=O)OCCn2c3ccccc3c3cc(NC(=O)CCc4nc(-c5ccc(F)cc5Br)no4)ccc32)cc1` [Compound 15, [2-(3-{3-[3-(2-Bromo-4-fluorophenyl)-1,2,4-oxadiazol-5-yl]propanamido}-9H-carbazol-9-yl)ethyl] 4-methylbenzenesulfonate], the melting point is 136 °C.

`O=C(O)CCc1nc(-c2ccc([18F])cc2Br)no1` [[^18F]10]: the “Percentage of total activity in brain samples, 30 min p.i.” value in series [1] (brain homogenate extract, 30 min p.i. of [18F]1 or [18F]2, radio-HPLC) came to 8%. The “Percentage of total activity in brain samples, 60 min p.i.” value in series [1] (brain homogenate extract, 60 min p.i. of [18F]1 or [18F]2, radio-HPLC) was 51%. The “Relative percentage of intact tracer and radiometabolites, Plasma 60 min p.i.” value in series [1] (plasma, 60 min p.i. of [18F]1 or [18F]2, radio-HPLC) amounted to 88%. In addition, the tissue uptake at 0.5 h in series [2] (brain, read-out: uptake, Brain, 30 min p.i.) is 0.28 %ID/g; in series [2] (plasma, read-out: uptake, Plasma, 30 min p.i.), 18.2 %ID/g; in series [2] (spleen, read-out: uptake, Spleen, 30 min p.i.), 1.35 %ID/g. In addition, the tissue uptake at 1 h came out at 0.29 %ID/g in series [2] (brain, read-out: uptake, Brain, 60 min p.i.); 15.4 %ID/g in series [2] (plasma, read-out: uptake, Plasma, 60 min p.i.); 1.31 %ID/g in series [2] (spleen, read-out: uptake, Spleen, 60 min p.i.). In addition, in series [2] (up to 60 min p.i. of [18F]17, CD1 mice), the “Further metabolic transformation in brain and spleen samples” value is on record as “no further metabolic transformation”.

In the case of `COC(=O)CCc1nc(-c2ccc([18F])cc2Br)no1` [[^18F]17], in series [2] (plasma, 30 min p.i., i.v., CD1 mice), the “Conversion to free acid [18F]10 in plasma samples” value is given as “completely converted”.

Molecule `COC(=O)CCc1nc(-c2ccc(F)cc2Br)no1` [Compound 17, Methyl-3-(3-(2-bromo-4-fluorophenyl)-1,2,4-oxadiazol-5-yl)propanoate] registered a melting point of 39 °C.

As to `COC(=O)CCc1nc(-c2ccc([N+](C)(C)C)cc2Br)no1.[I-]` [Compound 18, 3-Bromo-4-(5-(3-methoxy-3-oxopropyl)-1,2,4-oxadiazol-3-yl)-N,N,N-trimethylbenzenaminium iodide], the melting point was determined as 119 °C.

Molecule `CCn1c2ccccc2c2cc(NC(=O)CCc3nc(-c4ccc([N+](C)(C)C)cc4Br)no3)ccc21.[I-]` [Compound 13, 3-Bromo-4-(5-(3-((9-ethyl-9H-carbazol-3-yl)amino)-3-oxopropyl)-1,2,4-oxadiazol-3-yl)-N,N,N-trimethylbenzenaminium iodide] yielded a melting point of 109 °C.
